Consider 1 compound from patent US20150224164A1, “TREATMENT OF AUTISM SPECTRUM DISORDERS USING GLYCYL-L-2-METHYLPROLYL-L-GLUMATIC ACID” (Neuren Pharmaceuticals Limited, priority 2013, published 2015).

Where a SMILES comes first, the peptide text is derived from it.

The subject of assay [1] is layer 5 pyramidal neurons of motor cortex, MeCP2 knockout. Description: Golgi staining, cortical spine density (Example 10). Type of assay: in vivo, mouse. The conditions noted are these: P28 mice; knockout with treatment. The protocol:
Samples (<1 cm) from P28 mice are fixed in 10% formalin and 3% potassium bichromate for 24 hours. Tissue is then transferred into 2% silver nitrate for 2 days in the dark at room temperature. Sections from these samples are then cut at 50 μm thickness into distilled water. Sections corresponding to motor cortex are mounted onto slides, air dried for 10 minutes, and then dehydrated through sequential rinses of 95% alcohol, 100% alcohol, and xylene, and then sealed with a coverslip. Images re acquired at 10× (whole cell) and 100× (spine imaging) using a Zeiss Pascal 5 Exciter confocal microscope. We use Golgi staining to label neurons sparsely and distinctly, and applied high-resolution confocal imaging to measure dendritic spine density and morphology in the labelled cells, restricting analysis to layer 5 pyramidal neurons in sections of motor cortex from critical period mice (P28). While low-magnification imaging clearly delineates the extent of the dendrites of the pyramidal cells we use higher magnifications to count synaptic contacts and determine the morphological class of each spine. We classify spines as either large and bulbous (“mushroom”, M), short and stubby (“stubby”, S), short and thin (“thin”, T) or filopodia (F).

The subject of a further assay is RTT iPSC-derived neurons. As to the kind of experiment: In vitro human model of Rett Syndrome, iPSC-derived neurons (Example 14). The format is cell-based. The conditions noted are these: 1 nM-10 μM for 1 week. Here is the method:
RTT fibroblasts (carrying 4 distinct MeCP2 mutations) and control fibroblasts are generated from explants of dermal biopsies. The shRNA against target MeCP2 gene is cloned into the LentiLox3.7 lentivirus vector (as described in Marchetto et al.). The fibroblasts are infected with retroviral reprogramming vectors (Sox2, Oct4, c-Myc and Klf4). Two days after infection, fibroblasts are plated on mitotically inactivated mouse embryonic fibroblasts with hESC medium. After 2 weeks, iPSC colonies that emerge from the background of fibroblasts are manually picked and transferred to feeder-free conditions on matrigel-coated dishes (BD) using embryonic stem cell culture media mTeSR™ (Stem Cell Technologies) and passaged manually. Gene expression profiles of the generated clones are measured using human genome Affymetrix Gene Chip™ arrays to confirm that reprogramming is successful. […]
Cells are fixed in 4% paraformaldehyde and permeabilized with 0.5% Triton-X100 in PBS. […] Fluorescent signals are detected using a Zeiss inverted microscope and images are processed with Photoshop CS3. The following primary antibodies are used: TRA-1-60, TRA-1-81 (1:100), Nanog and Lin28 (1:500), human Nestin (1:100), Tuj-1 (1:500), Map2 (1:100); meCP2 (1:1000; VGLUT1 (1:200), Psd95 (1:500), GFP (1:200), Sox1 (1:250), Mushasil (1:200) and me3H3K27 (1:500). Cell soma size is measured using suitable software (e.g. ImageJ) after identification of neurons using the Syn::EGFP™. The morphologies of neuronal dendrites and spines are studied from an individual projection of z-stacks optical sections and scanned at 0.5 um increments that correlate with the resolution valued at z-plane. Each optical section is the result of 3 scans at 500 lps followed by Kalman filtering. For synapse quantification, images are taken by a z-step of 1 um using Biorad radiance 2100™ confocal microscope. Synapse quantification is done blinded to genotype. Only VGLUT1 puncta along Map2-positive processes are counted. […]

On to `C[C@@]1(C(=O)N[C@@H](CCC(=O)O)C(=O)O)CCCN1C(=O)CN` [Example G-2-MePE, Glycyl-L-2-methylprolyl-L-glutamic acid] (HELM PEPTIDE1{G.[C[C@@]1(C(=O)[*:2])CCCN1[*:1]].E}$$$$V2.0), for which the “density of spines per unit branch” value in assay [1] is “largely ameliorated”. In the assay on RTT iPSC-derived neurons, the “frequency and amplitude of spontaneous post-synaptic currents, frequency of calcium transients” value was “normalizes”; the glutamatergic synapse numbers entry is “significant increase”. Moreover, the VGLUT1 puncta number entry in the assay on RTT iPSC-derived neurons (all concentrations) is “increase VGLUT1 puncta number”.
